The text below walks through data of patent US10858344B2, “Hydantoin containing deoxyuridine triphosphatase inhibitors” (CV6 Therapeutics (NI) Limited, priority 2016, dated 2020).

Structures are written as SMILES.

The target in the test is recombinant human deoxyuridine nucleotidohydrolase (dUTPase) (Homo sapiens (Human), UniProt P33316). As to the kind of experiment: fluorescence-based dUTPase inhibition assay. It is filed as biochemical. The note with it: for % relative inhibition vs. positive control: mean over three concentrations, typically 100, 50 and 25 μmol/L, compared to in-run positive control. The text has this: Recombinant human deoxyuridine nucleotidohydrolase (dUTPase) is expressed and purified as described in Ladner R D, Carr S A, Huddleston M J, McNulty D E, Caradonna S J. J Biol Chem. 1996 Mar. 29; 271(13):7752-7. All drugs stocks are aliquoted and diluted as appropriate prior to use. The oligonucelotide primer, templates and fluorophore- and quencher-labeled detection probes are synthesized by Integrated DNA Technologies (Coralville, Iowa), subjected to polyacrylamide gel electrophoresis purification and reconstituted in Omnipur sterile nuclease-free water (EMD Chemicals USA, Gibbstown N.J.) at a stock concentration of 100 μmol/L. The two non-emissive (dark) quenching molecules incorporated into the detection probes include the Iowa black fluorescein quencher (IBFQ; absorption max 531 nm) and ZEN (non-abbreviation; absorption max 532 nm). The fluorescent label utilized is 6-FAM (5′-carboxyfluorescein; excitation max.=494 nm, emission max.=520 nm). Probes are further diluted to a working stock of 10 μmol/L and aliquoted to avoid repeated freeze/thaw cycles. AmpliTaq Gold DNA Polymerase, GeneAmp 10×PCR Buffer 2, MgCl2 and MicroAmp Optical 96-well Reaction Plates are purchased from Applied Biosystems (Carlsbad, Calif.). dNTPs are purchased individually at stock concentrations of 100 mmol/L from New England Biolabs at HPLC-certified >99% purity (Ipswich, Mass.).
Reaction mixtures contained primer, probe and template at an equimolar final concentration of 0.4 μmol/L. Magnesium chloride (MgCl2) is included at a final concentration of 2 mmol/L. Non-limiting dNTPs are included in the reaction mix in excess at a final concentration of 100 μmol/L (dUTP/dTTP is excluded). AmpliTaq Gold DNA polymerase is added at 0.875 U/reaction, 2.5 μl of 10×PCR buffer 2 added and nuclease-free ddH2O added to a final reaction volume of 25 μl. For dUTP inhibition analysis, the volume of ddH2O is further modified to accommodate an additional 1 μl of dUTPase (10 ng/μl) and 1 μl of inhibitor or DMSO control. Thermal profiling and fluorescence detection is performed using a customized thermal program on board a Roche Lightcycler LC480 Instrument II. For analysis of dNTPs, the thermal profile consisted of an 8 min 37° C. step followed by a 10 min 95° C. step to ‘hot-start’ the Taq polymerase and a primer extension time of up to 30 min at 60° C. Raw fluorescence spectra for 6-FAM is measured at specified time intervals to follow assay progression on board a Roche LightCycler 480 Software Version 1.5 and exported and analyzed in Microsoft Excel (Microsoft, Redmond Wash.) and Prism (GraphPad Software, La Jolla Calif.). Fluorescence values for blank reactions (limiting dNTP omitted) are subtracted to give normalized fluorescence units (NFU) to account for background fluorescence.
Test compounds are screened in a fluorescence-based assay. The assay employs a DNA polymerase-based approach utilizing an oligonucleotide template with 3 distinct regions: a 3′ primer binding region, a mid-template dUTP/thymidine triphosphate (TTP) detection region and a 5′ 6-[…] (FAM)-labeled probe binding region that incorporates a black hole quenching moiety. During the reaction, the probe and primer hybridize to the oligonucleotide template to form the template:primer:probe complex. When Taq polymerase binds to the primer in the TPP complex and dUTP is present, successful extension of the nascent strand occurs and the inherent 5′ to 3′ exonuclease activity of Taq polymerase cleaves and displaces the 6-FAM-labeled probe in a 5′ to 3′ direction, releasing the 6-FAM fluorophore from its proximity to the three quenchers. This displacement effectively disrupts the Förster resonance energy transfer (FRET) and the resulting fluorescence detected upon excitation is directly proportional to the amount of the dUTP available in the assay for incorporation. […]

Chain of recombinant human deoxyuridine nucleotidohydrolase (dUTPase) (P33316 other isoform, or with tags, fused parts or gaps): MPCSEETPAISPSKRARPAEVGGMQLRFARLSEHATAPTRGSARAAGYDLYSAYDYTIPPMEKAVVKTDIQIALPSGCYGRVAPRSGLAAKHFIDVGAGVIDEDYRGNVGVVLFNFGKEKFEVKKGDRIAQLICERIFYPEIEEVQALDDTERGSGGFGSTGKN

As to `CC(C)COc1cc(C2(NS(=O)(=O)CC/C=C/CN3C(=O)NC(=O)C3(C)C)CC2)ccc1F` [118a, (E)-5-(5,5-dimethyl-2,4-dioxoimidazolidin-1-yl)-N-(1-(4-fluoro-3-isobutoxyphenyl)cyclopropyl)pent-3-ene-1-sulfonamide], the “% relative inhibition vs. positive control” value came out at 19%. Same read-out and setting: then `CC(C)COc1cc(C2(NS(=O)(=O)CCCCCN3C(=O)NC(=O)C3(C)C)CC2)ccc1F` [118b, 5-(5,5-dimethyl-2,4-dioxoimidazolidin-1-yl)-N-(1-(4-fluoro-3-isobutoxyphenyl)cyclopropyl)pentane-1-sulfonamide], with 19%. Same read-out and setting: then `CC1(C)C(=O)NC(=O)N1C/C=C/CCS(=O)(=O)NC1(c2ccc(F)c(OCC3CC3)c2)CC1` [119a, (E)-N-(1-(3-(cyclopropylmethoxy)-4-fluorophenyl)cyclopropyl)-5-(5,5-dimethyl-2,4-dioxoimidazolidin-1-yl)pent-3-ene-1-sulfonamide], with 10%. As for `CC1(C)C(=O)NC(=O)N1CCCCCS(=O)(=O)NC1(c2ccc(F)c(OCC3CC3)c2)CC1` [119b, N-(1-(3-(cyclopropylmethoxy)-4-fluorophenyl)cyclopropyl)-5-(5,5-dimethyl-2,4-dioxoimidazolidin-1-yl)pentane-1-sulfonamide], the “% relative inhibition vs. positive control” value came to 23%. Still for that read-out and setting: then `C[C@H]1C(=O)NC(=O)N1C/C=C/CCS(=O)(=O)NC1(c2cccc(OCC3CC3)c2)CC1` [123a, (S,E)-N-(1-(3-(cyclopropylmethoxy)phenyl)cyclopropyl)-5-(5-methyl-2,4-dioxoimidazolidin-1-yl)pent-3-ene-1-sulfonamide], with 105%; and `C[C@H]1C(=O)NC(=O)N1CCCCCS(=O)(=O)NC1(c2cccc(OCC3CC3)c2)CC1` [123b, (S)—N-(1-(3-(cyclopropylmethoxy)phenyl)cyclopropyl)-5-(5-methyl-2,4-dioxoimidazolidin-1-yl)pentane-1-sulfonamide], with 102%; and `C[C@@H](NS(=O)(=O)C/C=C/CCC1(C)NC(=O)NC1=O)c1ccc(F)c(OCC2CC2)c1` (stereo partly drawn) [127a, (E)-N—((R)-1-(3-(cyclopropylmethoxy)-4-fluorophenyl)ethyl)-5-(4-methyl-2,5-dioxoimidazolidin-4-yl) pent-2-ene-1-sulfonamide], with 37%. Same read-out and setting: the figure for `C[C@@H](NS(=O)(=O)CCCCCC1(C)NC(=O)NC1=O)c1ccc(F)c(OCC2CC2)c1` (stereo partly drawn) [127b, N—((R)-1-(3-(cyclopropylmethoxy)-4-fluorophenyl)ethyl)-5-(4-methyl-2,5-dioxoimidazolidin-4-yl) pentane-1-sulfonamide] is 71%; for `C[C@@H](NS(=O)(=O)CC/C=C/CN1C(=O)NC(=O)[C@@H]1C)c1ccc(F)c(OCC2CC2)c1` [Compound 107a, (E)-N—((R)-1-(3-(cyclopropylmethoxy)-4-fluorophenyl)ethyl)-5-((S)-5-methyl-2,4-dioxoimidazolidin-1-yl)pent-3-ene-1-sulfonamide] it is 153%; for `C[C@@H](NS(=O)(=O)CCCCCN1C(=O)NC(=O)[C@@H]1C)c1ccc(F)c(OCC2CC2)c1` [Compound 107b, N—((R)-1-(3-(cyclopropylmethoxy)-4-fluorophenyl)ethyl)-5-((S)-5-methyl-2,4-dioxoimidazolidin-1-yl)pentane-1-sulfonamide] it is 154%.

As for `CC(C)COc1cc([C@@H](C)NS(=O)(=O)CC/C=C/CN2C(=O)NC(=O)[C@H]2C)ccc1F` [Compound 108a, (E)-N—((R)-1-(4-fluoro-3-isobutoxyphenyl)ethyl)-5-((R)-5-methyl-2,4-dioxoimidazolidin-1-yl)pent-3-ene-1-sulfonamide], the “% relative inhibition vs. positive control” value was found to be 123%. Still for that read-out and setting: the figure for `CC(C)COc1cc([C@@H](C)NS(=O)(=O)CCCCCN2C(=O)NC(=O)[C@H]2C)ccc1F` [Compound 108b, N—((R)-1-(4-fluoro-3-isobutoxyphenyl)ethyl)-5-((R)-5-methyl-2,4-dioxoimidazolidin-1-yl)pentane-1-sulfonamide] is 94%; for `O=C1CN(C/C=C/CCCNS(=O)(=O)c2cccc(OCC3CC3)c2)C(=O)N1` [Example 79, (E)-3-(cyclopropylmethoxy)-N-(6-(2,4-dioxoimidazolidin-1-yl)hex-4-en-1-yl)benzenesulfonamide] it is 139%. On the same count and under the same terms, then `O=C1CN(CCCCCCNS(=O)(=O)c2cccc(OCC3CC3)c2)C(=O)N1` [Example 80, 3-(cyclopropylmethoxy)-N-(6-(2,4-dioxoimidazolidin-1-yl)hexyl)benzenesulfonamide], with 151%. On to `CCOc1cc([C@@H](C)NS(=O)(=O)CCCCCN2CC(=O)NC2=O)ccc1F` [Example 82, (R)-5-(2,4-dioxoimidazolidin-1-yl)-N-(1-(3-ethoxy-4-fluorophenyl)ethyl)pentane-1-sulfonamide], for which the IC50 worked out at 3000 nM and the “% relative inhibition vs. positive control” value was 25%. For `C[C@@H](NS(=O)(=O)CCCCCN1CC(=O)NC1=O)c1ccc(F)c(OC2CCC2)c1` [Example 83, (R)—N-(1-(3-cyclobutoxy-4-fluorophenyl)ethyl)-5-(2,4-dioxoimidazolidin-1-yl)pentane-1-sulfonamide], in that order: 2000 nM and 37%. The like results for `C[C@@H](NS(=O)(=O)CCCOCN1CC(=O)NC1=O)c1cccc(OC2CCCC2)c1` [Example 84, (R)—N-(1-(3-(cyclopentyloxy)phenyl)ethyl)-3-((2,4-dioxoimidazolidin-1-yl)methoxy)propane-1-sulfonamide] were, in that order, 2500 nM and 30%.

Turning to `C[C@@H](NS(=O)(=O)CCCOCN1CC(=O)NC1=O)c1ccc(F)c(OC2CCCC2)c1` [Example 85, (R)—N-(1-(3-(cyclopentyloxy)-4-fluorophenyl)ethyl)-3-((2,4-dioxoimidazolidin-1-yl)methoxy)propane-1-sulfonamide], the “% relative inhibition vs. positive control” value turned out to be 187%. Still for that read-out and setting: then `C[C@@H](NS(=O)(=O)CCCCCN1CC(=O)NC1=O)c1ccc(F)c(OC2CCCC2)c1` [Example 86, (R)—N-(1-(3-(cyclopentyloxy)-4-fluorophenyl)ethyl)-5-(2,4-dioxoimidazolidine-1-yl)pentane-1-sulfonamide], with 187%.

`C[C@@H](NS(=O)(=O)CCCCCN1CC(=O)NC1=O)c1ccc(F)c(OCC2COC2)c1` [Example 87, (R)-5-(2,4-dioxoimidazolidin-1-yl)-N-(1-(4-fluoro-3-(oxetane-3-ylmethoxy)phenyl)ethyl)pentane-1-sulfonamide]: the half-maximal inhibitory concentration (IC50) came to 2000 nM and the “% relative inhibition vs. positive control” value is on record as 37%. With `C[C@@H](NS(=O)(=O)CCCCCN1CC(=O)NC1=O)c1ccc(F)c(OCC2CCC2)c1` [Example 88, (R)—N-(1-(3-(cyclobutylmethoxy)-4-fluorophenyl)ethyl)-5-(2,4-dioxoimidazolidin-1-yl)pentane-1-sulfonamide], the half-maximal inhibitory concentration (IC50) was 800 nM and the “% relative inhibition vs. positive control” value is given as 93%.
